From patent publication US12698304B2, “Triterpene saponin variants, methods of synthesis and use thereof” (Memorial Sloan-Kettering Cancer Center, priority 2015, dated 2026)

Test system: mice immunized with a four-antigen cocktail (MUC1-KLH, GD3-KLH, OVA)
Experiment: preclinical mouse vaccination model; antibody titers by ELISA
Assay type: in vivo
Conditions: 5 μg and 20 μg dose of saponin variant (both doses); data not shown
Description: Panels a-c: anti-KLH (IgG) (Panel a), anti-OVA (IgG) (Panel b), and anti-MUC1 (IgG) (Panel c) antibody titers at 5 μg dose of each saponin variant. […] Median titer values represented as horizontal bars. Statistical significance compared to the no-adjuvant negative control assessed using unpaired Student's t-test with CI=95%: *p≤0.05, **p<0.01, ***p<0.001.
There is currently no in vitro method to measure adjuvant activity, due in part to the unknown and likely multivariate mechanisms of saponin adjuvant action. Thus, we proceeded directly to testing these QS variants in vivo in a mouse vaccination model. Cohorts of mice were immunized with the saponin variant of interest (5 or 20 μg) and a four-antigen cocktail comprising: (1) the immunogenic peptide MUC1 (prostate and breast cancer antigen, non-glycosylated tandem repeat) conjugated to a highly immunogenic carrier protein KLH (keyhole limpet hemocyanin; MUC1-KLH), (2) the poorly immunogenic ganglioside GD3 (melanoma, neuroblastoma, sarcoma antigen) conjugated to KLH (GD3-KLH), and (3) the immunogenic protein antigen ovalbumin (OVA). The antibody titers elicited against all […] antigens were evaluated by ELISA to compare the adjuvant activity of each QS analogue.

C[C@H]1O[C@@H](OC2C(O)[C@@H](NC(=O)CCCCCCCCCCC(=O)O)C(CO)O[C@@H]2OC(=O)N[C@]23CCC(C)(C)CC2C2=CCC4C5(C)CC[C@H](O[C@@H]6OC(C(=O)O)[C@@H](O)[C@H](O[C@@H]7OC[C@@H](O)[C@H](O)C7O)C6O[C@@H]6OC(CO)[C@H](O)[C@H](O)C6O)[C@](C)(C=O)[C@@H]5CC[C@]4(C)[C@]2(C)CC3O)C(O)C(O)[C@H]1O[C@@H]1OC[C@@H](O)C(O)C1O (stereo partly drawn) [α-4]
adjuvant activity (anti-KLH, anti-OVA, anti-MUC1 IgG antibody titers): inactive
